Measured values from PubChem BioAssay AID2060504 (Molecular Pharmacology Branch, DTP, NCI, 2025).
Values joined by “and” are separate entries in the source; they are usually repeats but may differ in a detail not shown here. Equal values may be shown once.

Tested on: 636577-100-R-J1-PDC complex spheroid viability
Test: Anticancer human tumor 636577-100-R-J1-PDC patient-derived endometrial adenocarcinoma cell line growth inhibition [GQUAD]
Conditions: for viability, T/C: stronger effect = lower value
Description: DNA G-quadruplex Stabilizer Agents in Combinations in Complex Spheroids
A high-throughput screen of multi-cell type tumor spheroids was designed to identify active combinations of DNA G-quadruplex stabilizer agents and targeted small molecules. Complex spheroids include a stromal component modeled by human endothelial cells (HUVEC) and fibroblasts modeled by human mesenchymal stem cells (MSCs). The concentration ranges selected for each drug and investigational agent were based upon clinically achievable concentrations if the clinical Cmax of the agent was known.
Compounds. The drugs and investigational agents: pidnarulex (CX-5461; NSC782164), APTO-253 (NSC789042), BRACO-19 (NSC847499), peposertib (NSC802822), ceralasertib (NSC780249), elimusertib (NSC800525), camonsertib (NSC841442), AZD-1390 (NSC803789), olaparib (NSC753686), talazoparib (NSC767125), ART-558 (NSC835418), sotorasib (NSC818433), MRTX-1133 (NSC836407), SN-38 (NSC673596), topotecan (NSC609699), etoposide (NSC141540), doxorubicin (NSC123127), gemcitabine (NSC613327), 5-fluorouracil (NSC19893), paclitaxel (NSC125973), vemurafenib (NSC761431), panobinostat (NSC761190), R-306465 (JNJ-16241199; NSC773264), adavosertib (NSC754352), TP-3654 (NSC805149), carboplatin (NSC241240), KSQ-4279 (NSC840948), and staurosporine (NSC755774) were obtained from the National Cancer Institute (NCI) Developmental Therapeutics Program Chemical Repository (34). The FDA-approved anticancer drug set is available from the NCI Developmental Therapeutics Program. […] The stock solutions were prepared in dimethyl sulfoxide (DMSO, Sigma-Aldrich, St. Louis, MO, cat. D2650) at 800-fold the tested concentration and stored at -70 degrees C prior to their use. All drugs and investigational agents were tested over a range starting from a high concentration at or near the clinical Cmax and decreasing in half-log increments. If the clinical Cmax for an agent had not been determined, the highest concentration tested was 10 microM.
2.3 Cell Culture. All cells were maintained in an incubator at 37 degrees C and 5% CO2 with 95% humidity. The PDC lines were cultured according to standard operating procedures established by the NCI PDMR. All PDCs were thawed and cultured in Matrigel-coated flasks prepared with a working solution of 1X Ham's F-12 nutrient mix, without supplementation (Invitrogen, cat. 11765054), 100 U/mL penicillin-streptomycin (Invitrogen, cat. 15140122), and 2.5% Matrigel (Corning Inc., cat. 354248) for the first three passages. The 857933-349-R-J2-PDC line was cultured in 6C/Colon 1B media, which includes advanced DMEM/F-12 (Thermo Fisher Scientific, cat. 12634028), 10 mM HEPES (Thermo Fisher Scientific, cat. 15630080), 1X GlutaMAX supplement (Thermo Fisher Scientific, cat. 35050061), 0.1 mg/mL primocin (InvivoGen, cat. ant-pm-2), 10% defined fetal bovine serum, heat inactivated (HyClone Laboratories Inc., cat. SH30070.03HI), 50% L-WRN conditioned media (ATCC, cat. CRL-3276), 1.25 mM N-Acetyl-L-cysteine (Sigma-Aldrich, cat. A9165), 10 mM nicotinamide (Sigma-Aldrich, cat. N0636), 1X B-27 supplement (Thermo Fisher Scientific, cat. 17504044), 1X N-2 supplement (Thermo Fisher Scientific, cat. 17502048), 10 microM Y-27632 dihydrochloride (Tocris Bioscience, cat. 1254), and 50 ng/mL human EGF recombinant protein (Thermo Fisher Scientific, cat. PHG0311). The 485176-168-R4-J1-PDC line was cultured in Panc media, which includes all 6C/Colon 1B media components plus 100 ng/mL human FGF-10 (Thermo Fisher Scientific, cat. 100-26), 500 nM SB-431542 (Selleckchem, cat. S1067), and gastrin (Tocris, cat. 3006).
[…]
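Note: viability read after seven days of drug exposure.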
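Throughout, for viability, T/C: luminescence signal used as a proxy for viable cells; 100% = DMSO vehicle control wells.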

Structure (SMILES)	viability, T/C (compound 0.0316 µM)	viability, T/C (compound 0.1 µM)	viability, T/C (compound 0.316 µM)	viability, T/C (compound 1 µM)	viability, T/C (compound 3.16 µM)	viability, T/C (compound 10 µM)	IC50 (curve of compound)	viability, T/C (compound 0.000999 µM)	viability, T/C (compound 0.00316 µM)	viability, T/C (compound 0.00999 µM)	viability, T/C (compound 0.0999 µM)	IC50 (compound alone, run of 03/26/2024)
C#Cc1c(F)ccc2cc(O)cc(-c3ncc4c(N5CC6CCC(C5)N6)nc(OCC56CCCN5CC(F)C6)nc4c3F)c12 (centres undefined)	99.5% and 96.3% and 104%	88.7% and 68.7% and 103%	77.1% and 102% and 113%	83% and 87.9% and 71.9%	66.9% and 56.5% and 70.4%	49.2% and 39.9% and 35.7%	> 10000 nM and 4970 nM and 5760 nM	–	–	–	–	–
C=CC(=O)N1CCN(c2nc(=O)n(-c3c(C)ccnc3C(C)C)c3nc(-c4c(O)cccc4F)c(F)cc23)C(C)C1 (centres undefined)	103% and 110%	55.1% and 117%	105%	107% and 90.3%	72.6% and 85.3%	70.6% and 66.2%	> 10000 nM	–	–	–	–	–
C=CCn1c(=O)c2cnc(Nc3ccc(N4CCN(C)CC4)cc3)nc2n1-c1cccc(C(C)(C)O)n1	85% and 95.4% and 95.7%	83.5% and 87.5% and 102%	82.6% and 74.1% and 110%	39.1% and 30.6% and 46.6%	16.7% and 15% and 16.4%	11.8% and 9.58% and 9.6%	749 nM and 598 nM and 932 nM	–	–	–	–	–
CC(=O)O[C@H]1C(=O)[C@@]2(C)[C@H]([C@H](OC(=O)c3ccccc3)[C@]3(O)C[C@H](OC(=O)[C@H](O)[C@@H](NC(=O)c4ccccc4)c4ccccc4)C(C)=C1C3(C)C)[C@]1(OC(C)=O)CO[C@@H]1C[C@@H]2O	17.6% and 17.3% and 20.3%	14% and 14.4% and 13.2%	12.3% and 12.7% and 10.3%	12.2% and 12% and 10%	9.72% and 10.1% and 7.81%	9.54% and 9.71% and 8.27%	< 31.6 nM	–	–	–	–	–
CC(C)(O)C1CCC(Nc2ccc3ncc(-c4cccc(C(F)(F)F)c4)n3n2)CC1 (centres undefined)	102% and 104% and 81.5%	86.4% and 84.5% and 92.3%	93.7% and 109% and 93.8%	67.9% and 78.7% and 42.9%	29.4% and 26.8% and 30.6%	35.9% and 36.4% and 44.3%	1790 nM and 2020 nM and 839 nM	–	–	–	–	–
CC(C)n1c(=O)n(C)c2cnc3cc(F)c(-c4ccc(OCCCN5CCCCC5)nc4)cc3c21	72.8% and 108%	97.3% and 87.1%	90.1% and 107%	56.6% and 102%	57.8% and 80.4%	53.7% and 49%	> 10000 nM and 9660 nM	–	–	–	–	–
CC1COCCN1c1cc(-c2ccnn2C)c2ccnc(-c3ccn[nH]3)c2n1 (centres undefined)	85.1% and 78.3% and 94.5%	52.2% and 35.1% and 51.9%	29.6% and 23.1% and 25.6%	15.7% and 12.7% and 13%	5.78% and 5.92% and 5.17%	3.61% and 3.66% and 3.51%	113 nM and 71 nM and 109 nM	–	–	–	–	–
CC1COCCN1c1cc(C2(O)CC3CCC(C2)O3)c2cnn(-c3ccn[nH]3)c2n1 (centres undefined)	45.5% and 69.8% and 52.9%	36.3% and 25.4% and 31.3%	18.9% and 15.5% and 18%	8.03% and 6.74% and 6.72%	3.6% and 2.83% and 2.96%	1.1% and 0.71% and 1.08%	< 31.6 nM and 54.1 nM and 36.7 nM	–	–	–	–	–
CC1COCCN1c1cc(C2(S(C)(=N)=O)CC2)nc(-c2ccnc3[nH]ccc23)n1 (centres undefined)	90.3% and 97.2% and 58.2%	91.5% and 90.5% and 90.6%	93% and 90.3% and 73.6%	50.8% and 49.6% and 41.9%	22.6% and 22.4% and 54.3%	14.2% and 12.7% and 14.7%	1040 nM and 2200 nM	–	–	–	–	–
CCCS(=O)(=O)Nc1ccc(F)c(C(=O)c2c[nH]c3ncc(-c4ccc(Cl)cc4)cc23)c1F	98.3% and 98.1% and 104%	89.9% and 103% and 86.1%	109% and 84.8% and 76.3%	75% and 74.6% and 46.8%	71.8% and 76.7% and 53.5%	46.6% and 34.8% and 20.9%	8650 nM and 6140 nM and 1700 nM	–	–	–	–	–
CC[C@@]1(O)C(=O)OCc2c1cc1n(c2=O)Cc2cc3c(CN(C)C)c(O)ccc3nc2-1	40.3%	–	22%	–	–	–	24.3 nM	85.3%	80.8%	82.9%	19.1%	–
CCc1c2c(nc3ccc(O)cc13)-c1cc3c(c(=O)n1C2)COC(=O)[C@]3(O)CC	22.9%	–	10.7%	–	–	–	< 0.999 nM	46.6%	22.1%	23.3%	19.6%	–
CN(C)c1ccc(Nc2c3ccc(NC(=O)CCN4CCCC4)cc3nc3cc(NC(=O)CCN4CCCC4)ccc23)cc1	104% [middle of 12 runs]	–	–	82.9% [middle of 12 runs]	40.7% [middle of 12 runs]	6.05% [middle of 12 runs]	–	–	–	–	–	2.41 µM [middle of 11 runs]
